Source: US20090215025A1, “SMALL PEPTIDIC AND PEPTIDO-MIMETIC AFFINITY LIGANDS FOR FACTOR VIII AND FACTOR VIII-LIKE PROTEINS” (TECHNISCHE UNIVERSITAT MUNCHEN, priority 2005, published 2009)
[ ]: non-standard residue; d: D form. Bpa = N[C@@H](Cc1ccc(C(=O)c2ccccc2)cc1)C(=O)O; 1Nal = N[C@@H](Cc1cccc2ccccc12)C(=O)O; 2Nal = N[C@@H](Cc1ccc2ccccc2c1)C(=O)O

How the values were obtained:
[1] = biological target: T1, plasma-derived (pd-) human Factor VIII (FVIII) (Homo sapiens, UniProt P00451); assay: Binding of 125I-labeled pd-FVIII to peptides immobilized on Toyopearl AF-Epoxy-650M resin (micro-beads assay)
T1 construct: from tissue; host or cells: human blood plasma (FVIII concentrate)
T1 sequence (P00451 20-1667 limits assumed): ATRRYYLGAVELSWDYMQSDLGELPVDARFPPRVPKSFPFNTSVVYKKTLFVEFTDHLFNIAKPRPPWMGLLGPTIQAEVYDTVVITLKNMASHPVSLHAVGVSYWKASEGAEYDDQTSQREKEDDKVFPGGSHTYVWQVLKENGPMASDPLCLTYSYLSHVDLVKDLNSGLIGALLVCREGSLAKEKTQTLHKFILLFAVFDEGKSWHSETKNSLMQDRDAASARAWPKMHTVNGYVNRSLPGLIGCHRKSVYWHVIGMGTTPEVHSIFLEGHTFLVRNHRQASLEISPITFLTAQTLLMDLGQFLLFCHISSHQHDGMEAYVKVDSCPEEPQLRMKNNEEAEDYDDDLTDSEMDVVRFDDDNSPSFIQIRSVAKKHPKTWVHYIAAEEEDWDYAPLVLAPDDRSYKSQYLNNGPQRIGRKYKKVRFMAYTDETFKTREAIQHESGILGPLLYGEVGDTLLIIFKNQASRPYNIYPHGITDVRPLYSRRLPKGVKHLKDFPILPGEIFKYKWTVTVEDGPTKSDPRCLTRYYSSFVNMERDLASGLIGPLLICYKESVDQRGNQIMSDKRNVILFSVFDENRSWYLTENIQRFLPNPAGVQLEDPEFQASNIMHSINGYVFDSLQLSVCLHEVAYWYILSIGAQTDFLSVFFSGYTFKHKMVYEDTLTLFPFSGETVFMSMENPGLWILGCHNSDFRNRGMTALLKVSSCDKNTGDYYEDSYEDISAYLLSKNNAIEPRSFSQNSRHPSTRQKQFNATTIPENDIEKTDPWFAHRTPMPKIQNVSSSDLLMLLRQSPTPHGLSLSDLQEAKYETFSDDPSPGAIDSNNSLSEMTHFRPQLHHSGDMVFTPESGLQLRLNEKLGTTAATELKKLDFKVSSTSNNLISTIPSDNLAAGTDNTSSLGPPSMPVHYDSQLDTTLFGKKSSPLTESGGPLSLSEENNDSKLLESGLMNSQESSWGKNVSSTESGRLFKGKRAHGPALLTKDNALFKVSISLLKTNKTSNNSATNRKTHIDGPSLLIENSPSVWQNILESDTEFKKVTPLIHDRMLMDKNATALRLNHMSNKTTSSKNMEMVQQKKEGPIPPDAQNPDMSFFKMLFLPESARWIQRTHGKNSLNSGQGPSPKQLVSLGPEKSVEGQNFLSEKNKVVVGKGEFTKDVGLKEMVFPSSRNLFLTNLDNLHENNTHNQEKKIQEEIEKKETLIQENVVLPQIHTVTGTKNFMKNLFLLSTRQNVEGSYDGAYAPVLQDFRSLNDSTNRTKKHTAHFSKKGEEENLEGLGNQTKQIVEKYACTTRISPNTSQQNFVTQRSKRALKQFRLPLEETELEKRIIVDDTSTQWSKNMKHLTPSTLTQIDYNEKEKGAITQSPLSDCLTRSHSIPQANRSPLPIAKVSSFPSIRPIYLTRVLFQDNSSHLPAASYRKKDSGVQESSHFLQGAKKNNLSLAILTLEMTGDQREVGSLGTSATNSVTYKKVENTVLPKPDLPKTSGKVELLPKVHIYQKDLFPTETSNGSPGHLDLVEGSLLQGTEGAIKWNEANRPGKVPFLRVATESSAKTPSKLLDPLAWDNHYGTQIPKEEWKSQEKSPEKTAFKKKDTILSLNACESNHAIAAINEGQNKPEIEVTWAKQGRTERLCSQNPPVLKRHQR
T1 sequence (P00451 1668-2351 limits assumed): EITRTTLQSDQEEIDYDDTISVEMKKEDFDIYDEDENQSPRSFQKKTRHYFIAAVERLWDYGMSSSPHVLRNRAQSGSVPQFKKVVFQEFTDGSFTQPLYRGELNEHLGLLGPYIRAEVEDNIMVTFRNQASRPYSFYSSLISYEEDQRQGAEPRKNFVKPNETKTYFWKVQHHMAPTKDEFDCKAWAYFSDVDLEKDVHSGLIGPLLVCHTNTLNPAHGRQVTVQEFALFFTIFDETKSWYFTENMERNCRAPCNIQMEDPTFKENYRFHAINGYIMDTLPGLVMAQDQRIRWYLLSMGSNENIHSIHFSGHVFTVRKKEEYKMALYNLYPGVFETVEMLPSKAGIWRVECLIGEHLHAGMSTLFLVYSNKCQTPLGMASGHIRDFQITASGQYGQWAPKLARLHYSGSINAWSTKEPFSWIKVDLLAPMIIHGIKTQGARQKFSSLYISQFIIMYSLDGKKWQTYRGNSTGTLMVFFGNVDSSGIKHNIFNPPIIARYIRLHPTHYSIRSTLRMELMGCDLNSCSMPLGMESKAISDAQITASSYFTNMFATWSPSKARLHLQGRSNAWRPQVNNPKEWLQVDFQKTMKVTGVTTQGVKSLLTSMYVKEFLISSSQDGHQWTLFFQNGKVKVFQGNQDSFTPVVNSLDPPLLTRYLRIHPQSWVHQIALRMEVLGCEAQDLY
Procedure: Peptides P1 to P25 were immobilized on the Toyopearl AF-Epoxy-650M resin (Tosoh Biosep) as described by Jungbauer et al. For immobilization, 2.5 mg of each peptide was dissolved in 0.25 mL of the immobilization buffer (0.2 M sodium bicarbonate, pH 10.3), and 0.036 g of the dry resin powder (corresponding to 0.125 mL of swollen resin) was added, followed by incubation of the mixture with gentle rotation for 48 hours. Upon incubation for 48 hours the resin was washed once with immobilization buffer, once with 1 M NaCl and then 3 times with binding buffer, and binding of ^125I-labeled pd-FVIII to the peptide-coated and control resin was tested. The coupling density of each peptide in each of the reported experiments was as mentioned in Table 1. The control 0.25 mL portion of the resin was similarly treated in parallel experiment in the absence of peptide and was subsequently used as a control (designated as Background) in ^125I-pd-FVIII binding experiments. ^125I-pd-FVIII Bound/Background ratios were calculated as the amount of ^125I-pd-FVIII, bound to an immobilized peptide, divided by that bound to uncoated control resin, prepared as described above. This ratio represents a Signal/Noise ratio for the micro-beads assay, since ^125I-pd-FVIII bound to peptide represents the signal value and ^125I-pd-FVIII bound to peptide-uncoated resin represents the background (noise) value.
Plasma-derived (pd-) human Factor VIII (FVIII) was purified from concentrate by immunoaffinity chromatography on an anti-FVIII monoclonal antibody column followed by subsequent concentration of pd-FVIII by ion-exchange chromatography using Resource Q HR5/5 column. To separate FVIII from vWf, concentrate was incubated in 0.35 M NaCl, 0.04 M CaCl2, prior to affinity purification.
Trace amounts of vWf, which are potentially present in pd-FVIII preparation, were removed by passing pd-FVIII preparation through the column with anti-vWf high affinity monoclonal antibody, immobilized at the density 1.4 mg per mL of resin.
Ten μg of purified pd-FVIII were iodinated using lactoperoxidase beads and 0.5 mCi of Na^125I.
The resin with immobilized peptides was washed in the binding buffer (0.01 M Hepes, 0.1 M NaCl, 5 mM CaCl2, 0.01% Tween-80). Subsequently, the resin was diluted in the binding buffer as 1:7 slurry and aliquoted into Eppendorf tubes (40 μl per tube). ^125I-pd-FVIII (100000 cpm in 10 μl) was added to the tubes and the volume of the mixture was adjusted to 100 μl by adding 50 μl of the binding buffer containing 4% BSA to give a 2% final concentration of BSA. After 2 hours of incubation at room temperature on a rotator, the samples were washed 4 times in the binding. After each wash the tubes were centrifuged at 5000 rpm for 1 min in an Eppendorf microcentrifuge, supernatant was discarded, and the resin was re-suspended in the washing buffer, followed by centrifugation under the same conditions. After four washes the tubes with pellet without supernatant were counted for radioactivity. The resin without peptide was processed similarly to account for non-specific pd-FVIII binding to tubes and resin itself, and the radioactivity in this control tube was considered as a background value. Since ^125I-pd-FVIII contains the some fraction damaged during radiolabeling, binding was calculated as a percent of maximal achievable binding, determined in separate experiment with anti-FVIII Mab 8860-coated resin.
All the measurements were performed in duplicates. Each experiment was performed using two independently prepared immobilized peptide samples. The data presented in each figure are the mean values of the four determinations: duplicate determination in the two assays performed with beads on which peptides were independently immobilized on the different days. […]

[2] = biological target: T2, pd-FVIII (Homo sapiens, UniProt P00451); assay: Affinity chromatography purification of FVIII on peptide-coated resin column (OD280, one-stage APTT activity); settings: P1; Pure fVIII
T2 construct: from tissue; host or cells: human blood plasma (FVIII concentrate)
T2 sequence (P00451 20-1667 limits assumed): as the sequence (P00451 20-1667 limits assumed) above
T2 sequence (P00451 1668-2351 limits assumed): as the sequence (P00451 1668-2351 limits assumed) above
Procedure: The peptido-mimetic derivative P22 was immobilized on the Toyopearl resin as described in Example 1. 25 mg of peptide and 360 mg of resin were used. The resulting resin (˜1 ml) was packed in a glass column (Pharmacia-Biotech). The purification procedure was performed using a Waters 650E Advanced Protein Purification System. Buffer A was 0.01 M Hepes, 0.1 M NaCl, 5 mM CaCl2, 0.01% Tween-80 and Buffer B was 0.01 M Hepes, 1 M NaCl, 5 mM CaCl2, 0.01% Tween-80 (pH 6.8). The elution was monitored by a flow-through UV detector (Waters 490 E) by optical density at 280 nm (OD280). The elution fractions were then analyzed for their protein content by determining OD280 and FVIII activity was determined in a one-stage APTT assay using MLA Electra-800 automatic coagulation timer. The samples from elution fractions were analyzed by 10% PAGE followed by silver staining and Western blotting using monoclonal antibodies against FVIII.
FVIII (0.5 mg), previously purified by immunoaffinity and ion-exchange chromatography as described above, was diluted by 0.01 M Hepes, 5 mM CaCl2, 0.01% Tween-80 to a final salt concentration of 0.1 M NaCl. The mixture was applied onto the P22-column, followed by wash with Buffer A, until the OD280 returned to background.
The purification of FVIII was performed from cell-conditioned FBS-containing SF9 media, spiked with FVIII. FVIII (0.5 mg), previously purified by immunoaffinity and ion-exchange chromatography as described above, was mixed with cell-conditioned FBS-containing SF9 media, which was diluted with 0.01 M Hepes, 5 mM CaCl2, 0.01% Tween-80 to a final salt concentration of 0.1 M NaCl. The mixture was applied onto the column, followed by wash with Buffer A, until the OD280 returned to background. The wash with 85% Buffer A 15% Buffer B was performed to elute some of bound contaminating proteins.
Peptide P1 was bonded to the resin as described in Example 1. 25 mg of peptide and 360 mg of resin were used. The resulting resin (˜1 ml) was packed in a glass column (Pharmacia-Biotech). A FVIII containing sample was purified as described with respect to Example 3, the only difference between the two experiments being the absence of a prelusion step with Buffer A in the present experiment.

[3] = biological target: T2, pd-FVIII; assay: as above; settings: P1; FBS-containing conditioned DMEM spiked with FVIII
[4] = Table 1, 125I-pd-FVIII Bound/Background ratio versus uncoated control resin
[5] = Table 1, immobilized on Toyopearl AF-Epoxy-650M, percent of maximal achievable binding (anti-FVIII Mab 8860-coated resin), mean of four determinations

Row | Molecule | Binding, rel. to control [1, 4] | % Binding pdFVIII [1, 5] [%] | further results
1 | H-Trp-Glu-Tyr-homo-Cys-OH [Compound P3] | 21.9 ± 1.3 | 38.4 ± 2.3 | –
2 | IPA-Glu-Tyr-Cys-OH [Compound P19] | 18.7 ± 1.7 | 53.2 ± 4.9 | –
3 | H-WE[1Nal]C-OH [Compound P9] | 23.8 ± 2.2 | 60.9 ± 5.5 | –
4 | IBA-Glu-Tyr-Cys-OH [Compound P17] | 24.7 ± 1.5 | 62.7 ± 3.9 | –
5 | ECYYEHWS [scrambled, reference compound] | – | – | % Binding pdFVIII ([1]; Table 2, comparative compound immobilized on Toyopearl AF-Epoxy-650M): 6.5 ± 0.5%; Binding, rel. to control ([1]; Table 2, ratio versus uncoated resin): 4.1 ± 0.3
6 | H-[Bpa]EYC-OH [Compound P12] | 22.3 ± 0.5 | 57.0 ± 1.39 | –
7 | IBA-Asp-Tyr-Cys-OH [Compound P18] | 20.2 ± 2.5 | 57.2 ± 7.2 | –
8 | IAA-Asp-Tyr-Cys-OH [Compound P16] | 24.7 ± 0.3 | 70.1 ± 0.8 | –
9 | O=C(O)CCC(NCCc1c[nH]c2ccccc12)C(=O)NC(Cc1ccc(O)cc1)C(=O)NC(CS)C(=O)O (stereo not shown) [Compound P25] | 22.7 ± 0.8 | 53.7 ± 1.9 | –
10 | H-[2Nal]EYC-OH [Compound P14] | 22.7 ± 2.4 | 58.1 ± 6.1 | –
11 | H-Trp-Glu-Tyr-Aha-Cys-OH [Compound P5] | 22.2 ± 1.9 | 42.7 ± 2.3 | –
12 | H-D-Cys-D-Tyr-D-Glu-D-Trp-OH [Compound P7] | 19.8 ± 0.3 | 56.1 ± 0.9 | –
13 | IPA-Asp-Tyr-Cys-OH [Compound P20] | 21.4 ± 1.4 | 60.7 ± 4.1 | –
14 | H-Trp-Glu-Tyr(OMe)-Cys-OH [Compound P10] | 19.0 ± 3.0 | 54.1 ± 8.4 | –
15 | H-Trp-Glu-Tyr-Gly-Cys-OH (H-WEYGC-OH) [Compound P4] | 27.4 ± 1.3 | 52.7 ± 2.5 | –
16 | H-Trp-Glu-Phe-Cys-OH (H-WEFC-OH) [Compound P8] | 8.7 ± 0.1 | 24.7 ± 0.1 | –
17 | H-Trp-Glu-Tyr-Gly-Aha-Cys-OH [Compound P6] | 15.2 ± 0.7 | 43.1 ± 2.0 | –
18 | H-Trp-Glu-Tyr-Cys-OH (H-WEYC-OH) [Compound P1] | 20.9 ± 1.7 | 47.6 ± 4.0 | Activity, Elution [2]: 552 IU/ml; Activity, Flow-through [2]: 9 IU/ml; OD 280, Elution [2]: 0.108; OD 280, Flow-through [2]: 0.02; Purification, times [2]: 2 times; Activity, Elution [3]: 66 IU/ml; Activity, Flow-through [3]: 6 IU/ml; OD 280, Elution [3]: 0.08; OD 280, Flow-through [3]: 0.49; Purification, times [3]: 13 times
19 | H-[1Nal]EYC-OH [Compound P13] | 26.1 ± 2.3 | 66.8 ± 5.9 | –
20 | Ac-Trp-Glu-Tyr-Cys-NH2 (Ac-WEYC-NH2) [Compound P2] | 18.9 ± 2.0 | 53.6 ± 5.7 | –
21 | H-Trp-Asp-Tyr-Cys-OH (H-WDYC-OH) [Compound P11] | 24.7 ± 2.7 | 62.8 ± 6.9 | –
